ChEMBL document CHEMBL5303573, “Mapping human microbiome drug metabolism by gut bacteria and their genes” (Nature, 2019)

Experiments:
[1] = The drug is tested on Bacteroides fragilis strain: HMW615 for biotransformation. The drug concentrations were measured before and after a 12-h incubation by liquid-chromatography-coupled mass spectrometry (LC–MS); details: 2 µM
[2] = The drug is tested on Clostridium symbiosum strain: ATCC14940 for biotransformation. The drug concentrations were measured before and after a 12-h incubation by liquid-chromatography-coupled mass spectrometry (LC–MS); details: 2 µM
[3] = The drug is tested on Odoribacter splanchnicus strain: fecal isolate for biotransformation. The drug concentrations were measured before and after a 12-h incubation by liquid-chromatography-coupled mass spectrometry (LC–MS); details: 2 µM
[4] = The drug is tested on Clostridium asparagiforme strain: DSM15981 for biotransformation. The drug concentrations were measured before and after a 12-h incubation by liquid-chromatography-coupled mass spectrometry (LC–MS); assay type: ADME; set-up: dose 2 uM, timepoint 0 vs 12 hours; details: enterocloster asparagiformis, 2 µM
[5] = The drug is tested on Bacteroides cellulosilyticus strain: DSM14838 for biotransformation. The drug concentrations were measured before and after a 12-h incubation by liquid-chromatography-coupled mass spectrometry (LC–MS); details: 2 µM
[6] = bacteroides intestinalis, 12 h, 2 µM
Description: The drug is tested on Bacteroides intestinalis strain: DSM17393 for biotransformation. The drug concentrations were measured before and after a 12-h incubation by liquid-chromatography-coupled mass spectrometry (LC–MS)

[7] = The drug is tested on Blautia luti strain: DSM14534 for biotransformation. The drug concentrations were measured before and after a 12-h incubation by liquid-chromatography-coupled mass spectrometry (LC–MS); assay type: ADME; set-up: dose 2 uM, timepoint 0 vs 12 hours; details: 2 µM
[8] = anaerostipes sp., 12 h, 2 µM
Description: The drug is tested on Anaerostipes sp. strain: fecal isolate for biotransformation. The drug concentrations were measured before and after a 12-h incubation by liquid-chromatography-coupled mass spectrometry (LC–MS)

[9] = The drug is tested on Bacteroides uniformis strain: ATCC8492 for biotransformation. The drug concentrations were measured before and after a 12-h incubation by liquid-chromatography-coupled mass spectrometry (LC–MS); details: 2 µM
[10] = The drug is tested on Bacteroides fragilis strain: HMW610 for biotransformation. The drug concentrations were measured before and after a 12-h incubation by liquid-chromatography-coupled mass spectrometry (LC–MS); details: 2 µM
[11] = bacteroides fragilis, 12 h, 2 µM
Description: The drug is tested on Bacteroides fragilis strain: DS-208 for biotransformation. The drug concentrations were measured before and after a 12-h incubation by liquid-chromatography-coupled mass spectrometry (LC–MS)

[12] = akkermansia muciniphila, 12 h, 2 µM
Description: The drug is tested on Akkermansia muciniphila strain: ATCC BAA-835 for biotransformation. The drug concentrations were measured before and after a 12-h incubation by liquid-chromatography-coupled mass spectrometry (LC–MS)

[13] = The drug is tested on Coprococcus comes strain: ATCC27758 for biotransformation. The drug concentrations were measured before and after a 12-h incubation by liquid-chromatography-coupled mass spectrometry (LC–MS); assay type: ADME; set-up: dose 2 uM, timepoint 0 vs 12 hours; details: 2 µM
[14] = The drug is tested on Dorea formicigenerans strain: ATCC27755 for biotransformation. The drug concentrations were measured before and after a 12-h incubation by liquid-chromatography-coupled mass spectrometry (LC–MS); details: 2 µM
[15] = The drug is tested on Bacteroides caccae strain: ATCC43185 for biotransformation. The drug concentrations were measured before and after a 12-h incubation by liquid-chromatography-coupled mass spectrometry (LC–MS); details: 2 µM
[16] = segatella copri, 12 h, 2 µM
Description: The drug is tested on Prevotella copri strain: DSM18205 for biotransformation. The drug concentrations were measured before and after a 12-h incubation by liquid-chromatography-coupled mass spectrometry (LC–MS)

[17] = The drug is tested on Bacteroides xylanisolvens strain: DSM18836 for biotransformation. The drug concentrations were measured before and after a 12-h incubation by liquid-chromatography-coupled mass spectrometry (LC–MS); details: 2 µM
[18] = The drug is tested on Bacteroides vulgatus strain: ATCC8482 for biotransformation. The drug concentrations were measured before and after a 12-h incubation by liquid-chromatography-coupled mass spectrometry (LC–MS); details: phocaeicola vulgatus, 2 µM
[19] = The drug is tested on Enterobacter cancerogenus strain: ATCC35316 for biotransformation. The drug concentrations were measured before and after a 12-h incubation by liquid-chromatography-coupled mass spectrometry (LC–MS); details: 2 µM

| SMILES | Bacterial Biotransformation [1] | Bacterial Biotransformation [2] | Bacterial Biotransformation [3] | Bacterial Biotransformation [4] | Bacterial Biotransformation [5] | Bacterial Biotransformation [6] | Bacterial Biotransformation [7] | Bacterial Biotransformation [8] | Bacterial Biotransformation [9] | Bacterial Biotransformation [10] | Bacterial Biotransformation [11] | Bacterial Biotransformation [12] | Bacterial Biotransformation [13] | Bacterial Biotransformation [14] | Bacterial Biotransformation [15] | Bacterial Biotransformation [16] | Bacterial Biotransformation [17] | Bacterial Biotransformation [18] | Bacterial Biotransformation [19] |
| --- | --- | --- | --- | --- | --- | --- | --- | --- | --- | --- | --- | --- | --- | --- | --- | --- | --- | --- | --- |
| CN1CCN2c3ccccc3Cc3ccccc3C2C1 (configuration not stated) [MIANSERIN] | Compound NOT metabolized | Compound NOT metabolized | Compound NOT metabolized | Compound NOT metabolized | Compound NOT metabolized | Compound NOT metabolized | Compound NOT metabolized | Compound NOT metabolized | Compound NOT metabolized | Compound NOT metabolized | Compound NOT metabolized | Compound NOT metabolized | Compound NOT metabolized | Compound NOT metabolized | Compound NOT metabolized | – | – | – | – |
| CCN(CC)CCOC(=O)C(Cc1cccc2ccccc12)CC1CCCO1.O=C(O)C(=O)O (configuration not stated) [NAFRONYL OXALATE] | Compound NOT metabolized | Compound NOT metabolized | Compound metabolized | Compound NOT metabolized | Compound NOT metabolized | Compound NOT metabolized | Compound NOT metabolized | Compound NOT metabolized | Compound metabolized | – | Compound NOT metabolized | Compound NOT metabolized | Compound NOT metabolized | Compound NOT metabolized | Compound NOT metabolized | Compound metabolized | Compound NOT metabolized | Compound metabolized | Compound NOT metabolized |
| Cc1ccccc1N1C(=O)c2cc(S(N)(=O)=O)c(Cl)cc2NC1C (configuration not stated) [METOLAZONE] | Compound NOT metabolized | Compound NOT metabolized | Compound NOT metabolized | Compound NOT metabolized | Compound NOT metabolized | Compound NOT metabolized | Compound NOT metabolized | Compound NOT metabolized | Compound NOT metabolized | Compound NOT metabolized | Compound NOT metabolized | Compound NOT metabolized | – | – | Compound NOT metabolized | Compound NOT metabolized | Compound NOT metabolized | Compound NOT metabolized | Compound NOT metabolized |
| Fc1ccc([C@@H]2CCNC[C@H]2COc2ccc3c(c2)OCO3)cc1 [PAROXETINE] | Compound NOT metabolized | Compound NOT metabolized | Compound NOT metabolized | Compound NOT metabolized | Compound metabolized | Compound NOT metabolized | Compound NOT metabolized | Compound metabolized | Compound NOT metabolized | Compound NOT metabolized | Compound NOT metabolized | Compound NOT metabolized | Compound NOT metabolized | Compound NOT metabolized | Compound NOT metabolized | Compound NOT metabolized | Compound NOT metabolized | Compound NOT metabolized | Compound metabolized |
| COc1ccc2c3c1O[C@H]1C[C@@H](O)C=C[C@@]31CCN(C)C2 [GALANTAMINE] | Compound metabolized | Compound NOT metabolized | Compound NOT metabolized | Compound NOT metabolized | Compound NOT metabolized | Compound NOT metabolized | Compound NOT metabolized | Compound metabolized | Compound metabolized | Compound metabolized | Compound metabolized | Compound NOT metabolized | Compound NOT metabolized | Compound NOT metabolized | Compound NOT metabolized | Compound metabolized | Compound metabolized | Compound metabolized | Compound NOT metabolized |
| C#C[C@]1(O)CC[C@H]2[C@@H]3CCC4=CC(=O)CC[C@@H]4[C@H]3CC[C@@]21CC [LEVONORGESTREL] | Compound metabolized | Compound NOT metabolized | Compound metabolized | Compound NOT metabolized | Compound metabolized | Compound NOT metabolized | Compound NOT metabolized | Compound NOT metabolized | Compound metabolized | Compound metabolized | Compound metabolized | Compound NOT metabolized | Compound NOT metabolized | Compound NOT metabolized | Compound metabolized | Compound NOT metabolized | Compound metabolized | Compound metabolized | Compound NOT metabolized |
| OC(Cn1cncn1)(Cn1cncn1)c1ccc(F)cc1F [FLUCONAZOLE] | – | Compound metabolized | Compound metabolized | Compound NOT metabolized | Compound NOT metabolized | – | Compound NOT metabolized | Compound NOT metabolized | Compound metabolized | Compound metabolized | – | Compound metabolized | – | Compound metabolized | Compound NOT metabolized | Compound NOT metabolized | Compound metabolized | – | Compound NOT metabolized |
| O=C1NCC2(CCN(CCc3ccccc3)CC2)O1 [FENSPIRIDE] | Compound metabolized | Compound NOT metabolized | Compound NOT metabolized | Compound NOT metabolized | Compound NOT metabolized | – | Compound NOT metabolized | Compound NOT metabolized | Compound metabolized | Compound metabolized | Compound metabolized | Compound NOT metabolized | Compound NOT metabolized | Compound NOT metabolized | Compound NOT metabolized | Compound metabolized | Compound NOT metabolized | Compound NOT metabolized | Compound NOT metabolized |
| CC(=O)OCC(=O)[C@@]1(OC(C)=O)[C@@H](C)C[C@H]2[C@@H]3C[C@H](F)C4=CC(=O)C=C[C@]4(C)[C@@]3(F)[C@@H](O)C[C@@]21C [DIFLORASONE DIACETATE] | Compound metabolized | Compound metabolized | Compound metabolized | Compound metabolized | Compound metabolized | Compound metabolized | Compound metabolized | Compound metabolized | Compound metabolized | Compound metabolized | Compound metabolized | Compound metabolized | Compound NOT metabolized | Compound NOT metabolized | Compound metabolized | Compound metabolized | Compound metabolized | Compound metabolized | – |
